Reference: ChEMBL document CHEMBL3421556, “Bis(aminomethyl)phosphinic Acid, a Highly Promising Scaffold for the Development of Bacterial Urease Inhibitors” (ACS Med Chem Lett, 2015)

Columns and labels:
[1] = Inhibition of urease from Sporosarcina pasteurii CCM 2056 using urea as substrate by Berthelot colorimetric assay
[2] = Inhibition of urease from Proteus mirabilis CCM 1944 using urea as substrate by Berthelot colorimetric assay

Structure (SMILES)	Ki ([1]; read-out: Ki) [µM]	Ki ([2]; read-out: Ki) [µM]	Ki [1]	Ki [2]
NCP(=O)(O)CN	80	82		
CNCP(=O)(O)CN	1.59	34		
CCCNCP(=O)(O)CN	11.2	16		
CCCCNCP(=O)(O)CN	9.6	25.9		
CC(C)CNCP(=O)(O)CN	270	416		
CCCCCNCP(=O)(O)CN	13.3	19		
CCCCCCNCP(=O)(O)CN	0.108	0.202		
CCCCCCCNCP(=O)(O)CN	543	778		
CCCCCCCCNCP(=O)(O)CN			Not Active	Not Active
NCP(=O)(O)CNC1CCCCC1			Not Active	Not Active
CN(C)CP(=O)(O)CN	4.66	24.4		
CCN(CC)CP(=O)(O)CN			Not Active	Not Active
NCP(=O)(O)CN1CCCCC1			Not Active	Not Active
CN(Cc1ccccc1)CP(=O)(O)CN	14.2	58.3		
CNCP(=O)(O)CNC	4.3	17.2		
O=P(O)(CNCc1ccccc1)CNCc1ccccc1	30.1	24.5		
CN(C)CP(=O)(O)CN(C)C		243	Not Active	
CC(=O)NO [ACETOHYDROXAMIC ACID]	3.3	5.7		
